Results from ChEMBL document CHEMBL2151028, “Analysis of the mushroom nephrotoxin orellanine and its glucosides” (J Nat Prod, 2012).

Columns and labels:
Format in all cases: organism-based
Settings in all cases: in vivo
[1] = Acute toxicity in po dosed mouse
[2] = Acute toxicity in ip dosed rat
Homo sapiens = species: Homo sapiens; experiment: Acute toxicity in human

## [O-][n+]1ccc(O)c(O)c1-c1c(O)c(O)cc[n+]1[O-] [ORELLANINE]
[1]
  LD50: 12 mg/kg
[2]
  LD50: 5 mg/kg
Homo sapiens
  LD50: 29 g
